# Reference: US20140228377A1, “METHYLPIPERIDINE DERIVATIVE” (TAISHO PHARMACEUTICAL CO., LTD., priority 2011, published 2014)
# Experiments:
# [1] = target: T1, orexin-2 receptor (hOX2R) (Homo sapiens, UniProt O43614); assay: Orexin antagonistic activity assay (intracellular Ca2+, FDSS) in CHO cells expressing hOX2R; type: cell-based; details: CHO cells expressing hOX2R; ligand peptide 3 nM; Fluo-3 maximum fluorescence intensity; read-out: IC50 value OX2
# T1 construct: expressed in transfected cells; host or cells: Chinese hamster ovary (CHO) cells
# T1 sequence (O43614 1-444): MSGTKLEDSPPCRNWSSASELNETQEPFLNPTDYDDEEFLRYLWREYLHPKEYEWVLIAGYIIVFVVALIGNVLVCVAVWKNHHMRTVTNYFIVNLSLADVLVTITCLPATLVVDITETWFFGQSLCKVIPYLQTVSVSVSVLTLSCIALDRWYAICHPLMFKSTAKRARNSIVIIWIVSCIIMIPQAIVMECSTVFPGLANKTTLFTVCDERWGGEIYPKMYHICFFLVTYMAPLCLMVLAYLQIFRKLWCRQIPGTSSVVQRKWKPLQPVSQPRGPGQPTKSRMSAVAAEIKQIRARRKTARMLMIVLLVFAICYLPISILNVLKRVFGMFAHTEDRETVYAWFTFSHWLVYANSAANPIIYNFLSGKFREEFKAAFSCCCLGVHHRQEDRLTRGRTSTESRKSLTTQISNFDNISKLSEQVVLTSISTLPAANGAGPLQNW
# How it was run: (§1)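 Recombinant CHO cells, Fluo-3 AM loaded, were preincubated 30 min with compound, then stimulated with a modified orexin-A peptide (300 pM for hOX1R, 3 nM for hOX2R). Peak Ca2+ fluorescence read each second for 3 min; IC50 from concentration-response, normalised to ligand-only (100%) and no-ligand (0%) wells.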
# [2] = target: T2, human orexin-1 receptor (hOX1R) (Homo sapiens, UniProt O43613); assay: Orexin antagonistic activity assay (intracellular Ca2+, FDSS) in CHO cells expressing hOX1R; type: cell-based; details: CHO cells expressing hOX1R; ligand peptide 300 pM; Fluo-3 maximum fluorescence intensity; read-out: IC50 value OX1
# T2 construct: expressed in transfected cells; host or cells: Chinese hamster ovary (CHO) cells
# T2 sequence (O43613 1-425): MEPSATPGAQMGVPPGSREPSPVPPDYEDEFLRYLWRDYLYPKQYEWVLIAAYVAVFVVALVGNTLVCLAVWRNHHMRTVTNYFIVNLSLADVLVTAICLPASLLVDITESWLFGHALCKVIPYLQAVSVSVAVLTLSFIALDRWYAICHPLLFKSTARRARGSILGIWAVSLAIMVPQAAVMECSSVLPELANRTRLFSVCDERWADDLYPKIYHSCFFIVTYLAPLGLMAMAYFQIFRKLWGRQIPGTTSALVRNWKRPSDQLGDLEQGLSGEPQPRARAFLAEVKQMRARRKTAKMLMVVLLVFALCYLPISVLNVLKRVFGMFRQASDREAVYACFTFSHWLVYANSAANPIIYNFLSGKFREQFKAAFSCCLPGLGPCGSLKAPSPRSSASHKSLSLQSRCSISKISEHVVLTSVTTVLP
# How it was run: as §1
# [3] = Metabolic stability test using human liver microsomes; type: in vitro ADME; details: human liver microsomes 0.25 mg protein/mL, test compound 1 μM, 37° C., 15 minutes, NADPH production system
# Description: The stability test on a test compound was conducted according to the following method using human liver microsomes (Ms):
# The test compound was incubated (37° C., 15 minutes) together with human liver microsome fraction (XenoTech LLC; H630B, lot. 0810472) in a 0.1 M phosphate buffer solution (pH 7.4) in the presence of a NADPH production system (0.16 mM NADP+, 2.5 mM MgCl2, and 1.5 mM glucose-6-phosphate). The final concentrations of the test compound and the liver Ms protein were set to 1 μM and 0.25 mg protein/mL, respectively. After the incubation, the reaction mixture was supplemented with a 2-fold volume of DMSO, stirred, and then centrifuged at 2150×g (4° C., 10 minutes). The obtained supernatant was analyzed using a liquid chromatography tandem mass spectrometry (LC-MS/MS) system. The lower limit of quantification was 0.1 μM.
SMILES,IC50 [1],IC50 [2],rate of metabolism [3]
"Cc1ccc(-n2nccn2)c(C(=O)N2C[C@H](c3nc4cc(Cl)ccc4o3)CC[C@H]2C)n1 [Example 1, [(2R,5R)-5-(5-Chloro-1,3-benzoxazol-2-yl)-2-methylpiperidin-1-yl][6-methyl-3-(2H-1,2,3-triazol-2-yl)pyridin-2-yl]methanone]",12.2 nM,11 nM,27.8%
"Cc1ccc(-n2nccn2)c(C(=O)N2C[C@H](c3nc4cc(F)c(F)cc4o3)CC[C@H]2C)n1 [Example 54, [(2R,5R)-5-(5,6-Difluoro-1,3-benzoxazol-2-yl)-2-methylpiperidin-1-yl][6-methyl-3-(2H-1,2,3-triazol-2-yl)pyridin-2-yl]methanone]",52 nM,98.7 nM,
"C[C@@H]1CC[C@@H](c2nc3cc(F)c(F)cc3o2)CN1C(=O)c1ccc(F)cc1-n1nccn1 [Example 55, [(2R,5R)-5-(5,6-Difluoro-1,3-benzoxazol-2-yl)-2-methylpiperidin-1-yl][4-fluoro-2-(2H-1,2,3-triazol-2-yl)phenyl]methanone]",9.4 nM,207 nM,
"Cc1ccc(-n2nccn2)c(C(=O)N2C[C@H](c3nc4cc(C#N)ccc4o3)CC[C@H]2C)c1 [Example 56, 2-[(3R,6R)-6-Methyl-1-[5-methyl-2-(2H-1,2,3-triazol-2-yl)benzoyl]piperidin-3-yl]-1,3-benzoxazole-5-carbonitrile]",10 nM,164 nM,
"Cc1ccc(-c2ncccn2)c(C(=O)N2C[C@H](c3nc4cc(C#N)ccc4o3)CC[C@H]2C)c1 [Example 57, 2-{(3R,6R)-6-Methyl-1-[5-methyl-2-(pyrimidin-2-yl)benzoyl]piperidin-3-yl}-1,3-benzoxazole-5-carbonitrile]",20.1 nM,561 nM,
"Cc1ccc(-n2nccn2)c(C(=O)N2C[C@H](c3nc4ccc(F)c(F)c4o3)CC[C@H]2C)c1 [Example 58, [(2R,5R)-5-(6,7-Difluoro-1,3-benzoxazol-2-yl)-2-methylpiperidin-1-yl][5-methyl-2-(2H-1,2,3-triazol-2-yl)phenyl]methanone]",9.4 nM,9.3 nM,
"Cc1ccc(-c2ncccn2)c(C(=O)N2C[C@H](c3nc4ccc(F)c(F)c4o3)CC[C@H]2C)c1 [Example 59, [(2R,5R)-5-(6,7-Difluoro-1,3-benzoxazol-2-yl)-2-methylpiperidin-1-yl][5-methyl-2-(pyrimidin-2-yl)phenyl]methanone]",9.2 nM,4.4 nM,
"Cc1ccc(-n2nccn2)c(C(=O)N2C[C@H](c3nc4c(F)cc(F)cc4o3)CC[C@H]2C)c1 [Example 60, [(2R,5R)-5-(4,6-Difluoro-1,3-benzoxazol-2-yl)-2-methylpiperidin-1-yl][5-methyl-2-(2H-1,2,3-triazol-2-yl)phenyl]methanone]",45.7 nM,93.3 nM,
"Cc1ccc(-c2ncccn2)c(C(=O)N2C[C@H](c3nc4c(F)cc(F)cc4o3)CC[C@H]2C)c1 [Example 61, [(2R,5R)-5-(4,6-Difluoro-1,3-benzoxazol-2-yl)-2-methylpiperidin-1-yl][5-methyl-2-(pyrimidin-2-yl)phenyl]methanone]",44.2 nM,81.3 nM,
"Cc1ccc(-n2nccn2)c(C(=O)N2C[C@H](c3nc4cc(F)cc(F)c4o3)CC[C@H]2C)c1 [Example 62, [(2R,5R)-5-(5,7-Difluoro-1,3-benzoxazol-2-yl)-2-methylpiperidin-1-yl][5-methyl-2-(2H-1,2,3-triazol-2-yl)phenyl]methanone]",4.3 nM,24.8 nM,
"Cc1ccc(-c2ncccn2)c(C(=O)N2C[C@H](c3nc4cc(F)cc(F)c4o3)CC[C@H]2C)c1 [Example 63, [(2R,5R)-5-(5,7-Difluoro-1,3-benzoxazol-2-yl)-2-methylpiperidin-1-yl][5-methyl-2-(pyrimidin-2-yl)phenyl]methanone]",5.5 nM,29.1 nM,
"Cc1ccc(-n2nccn2)c(C(=O)N2C[C@H](c3nc4cc(F)cc(F)c4o3)CC[C@H]2C)n1 [Example 64, [(2R,5R)-5-(5,7-Difluoro-1,3-benzoxazol-2-yl)-2-methylpiperidin-1-yl][6-methyl-3-(2H-1,2,3-triazol-2-yl)pyridin-2-yl]methanone]",28.5 nM,144 nM,
"Cc1ccc(-n2nccn2)c(C(=O)N2C[C@H](c3nc4cccc(F)c4o3)CC[C@H]2C)c1 [Example 65, [(2R,5R)-5-(7-Fluoro-1,3-benzoxazol-2-yl)-2-methylpiperidin-1-yl][5-methyl-2-(2H-1,2,3-triazol-2-yl)phenyl]methanone]",6.6 nM,8.6 nM,
"Cc1ccc(-n2nccn2)c(C(=O)N2C[C@H](c3nc4c(F)cccc4o3)CC[C@H]2C)c1 [Example 66, [(2R,5R)-5-(4-Fluoro-1,3-benzoxazol-2-yl)-2-methylpiperidin-1-yl][5-methyl-2-(2H-1,2,3-triazol-2-yl)phenyl]methanone]",20.4 nM,36.5 nM,
"Cc1ccc(-c2ncccn2)c(C(=O)N2C[C@H](c3nc4c(F)cccc4o3)CC[C@H]2C)c1 [Example 67, [(2R,5R)-5-(4-Fluoro-1,3-benzoxazol-2-yl)-2-methylpiperidin-1-yl][5-methyl-2-(pyrimidin-2-yl)phenyl]methanone]",25.9 nM,27.7 nM,
"Cc1ccc(-n2nccn2)c(C(=O)N2C[C@H](c3nc4c(Cl)cccc4o3)CC[C@H]2C)c1 [Example 68, [(2R,5R)-5-(4-Chloro-1,3-benzoxazol-2-yl)-2-methylpiperidin-1-yl][5-methyl-2-(2H-1,2,3-triazol-2-yl)phenyl]methanone]",4.6 nM,7.1 nM,
"Cc1ccc(-c2ncccn2)c(C(=O)N2C[C@H](c3nc4c(Cl)cccc4o3)CC[C@H]2C)c1 [Example 69, [(2R,5R)-5-(4-Chloro-1,3-benzoxazol-2-yl)-2-methylpiperidin-1-yl][5-methyl-2-(pyrimidin-2-yl)phenyl]methanone]",5.5 nM,4.4 nM,
"C[C@@H]1CC[C@@H](c2nc3c(Cl)cccc3o2)CN1C(=O)c1cc(F)ccc1-c1ncccn1 [Example 70, [(2R,5R)-5-(4-Chloro-1,3-benzoxazol-2-yl)-2-methylpiperidin-1-yl][5-fluoro-2-(pyrimidin-2-yl)phenyl]methanone]",16.2 nM,12.3 nM,
"Cc1ccc(-n2nccn2)c(C(=O)N2C[C@H](c3nc4cc(Cl)cnc4o3)CC[C@H]2C)c1 [Example 71, [(2R,5R)-5-(6-Chloro[1,3]oxazolo[5,4-b]pyridin-2-yl)-2-methylpiperidin-1-yl][5-methyl-2-(2H-1,2,3-triazol-2-yl)phenyl]methanone]",6.1 nM,106 nM,
"C[C@@H]1CC[C@@H](c2nc3cc(Cl)cnc3o2)CN1C(=O)c1ccc(F)cc1-n1nccn1 [Example 72, [(2R,5R)-5-(6-Chloro[1,3]oxazolo[5,4-b]pyridin-2-yl)-2-methylpiperidin-1-yl][4-fluoro-2-(2H-1,2,3-triazol-2-yl)phenyl]methanone]",80.5 nM,412 nM,
